These molecules were tested on ankle plantarflexor muscle contractile force (assay: Rat isometric ankle plantarflexor muscle force). Settings: estimated concentration at which muscle force is 50% of pre-dose maximum tension, 30 Hz stimulation, continuous intravenous infusion over sixty minutes, female rats.
Type: in vivo, Sprague Dawley rats
Source text: Female Sprague Dawley rats were placed under a stable anesthesic plane with inhaled isoflurane (1-5%). One incision was made on the mid-thigh region of the right leg to expose the sciatic nerve. To prevent co-contraction of the ankle dorsiflexors, an additional incision was made lateral to the patella to isolate and sever the peroneal nerve. Rats were then placed on a temperature-maintained in situ muscle analysis rig (Aurora Scientific, Model 806C). The knee was immobilized in a clamp between two sharpened screws and the foot was taped to a footplate attached to a force transducer (Aurora Scientific, Ontario, Canada). Stainless steel needle electrodes (0.10 mm) were hooked around the exposed sciatic nerve. Isometric ankle plantarflexor muscle contractile force was assessed with the ankle joint at 90° flexion. A 30 Hz electrical stimulation (under supramaximal voltage conditions) was applied to the nerve and the resulting muscle force was recorded via a servomotor. A pre-dose 30 Hz force response was established as the baseline force. A pre-dose 150 Hz force response was established as the maximum isometric force. Compounds were formulated in 50% polyethylene glycol (PEG): 16% Cavitron: 10% dimethylacetamide (DMA) and administered by continuous intravenous infusion over a sixty minute period. The muscle force response to compound was measured every two minutes over the dosing period. Data were reported as an estimated EC50 value, which is the concentration at which muscle force is 50% of the pre-dose maximum tension. In Table 4, “Example Compound” refers to the compound labeled with the same number in Table 2.

Row | SMILES | EC50 [µM]
1 | CCC[C@H]1C(=O)Nc2ccccc2N1C(=O)c1cnn(C)c1 [Compound 13, (S)-4-(1-methyl-1H-pyrazole-4-carbonyl)-3-propyl-3,4-dihydroquinoxalin-2(1H)-one] | 15.7
2 | CC(C)[C@H]1C(=O)Nc2cnccc2N1C(=O)c1cnn(C)c1 [Compound 88, (S)-2-isopropyl-1-(1-methyl-1H-pyrazole-4-carbonyl)-1,4-dihydropyrido[3,4-b]pyrazin-3(2H)-one] | 20.1
3 | CC[C@H](C)[C@H]1C(=O)Nc2cnccc2N1C(=O)c1cnn(C)c1 [Compound 89, (S)-2-((S)-sec-butyl)-1-(1-methyl-1H-pyrazole-4-carbonyl)-1,4-dihydropyrido[3,4-b]pyrazin-3(2H)-one] | 23.9

What follows are molecules tested on rabbit skeletal myofibrils (approximately 90% fast fibers) (assay: Activation of fast skeletal myofibrils (PUMA coupled-enzyme ATPase assay)). Settings: concentration at which the compound increased the enzymatic activity by 40%; calcium at pCa25; PM12 buffer pH 6.8.
Type: biochemical
Outline: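 Rabbit psoas myofibrils (Triton-washed, ~90% fast fibers) at calcium giving 25% of maximal ATPase rate (pCa25). ADP regenerated via pyruvate kinase/lactate dehydrogenase coupling, NADH oxidation read as absorbance at 340 nm. Buffer 12 mM PIPES, 2 mM MgCl2, 1 mM DTT, pH 6.8.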

Row | SMILES | AC1.4 [µM]
4 | CCC[C@H]1C(=O)Nc2ccccc2N1C(=O)c1cnn(C)c1 [Compound 13, (S)-4-(1-methyl-1H-pyrazole-4-carbonyl)-3-propyl-3,4-dihydroquinoxalin-2(1H)-one] | 0.13
5 | CC(C)[C@H]1C(=O)Nc2cnccc2N1C(=O)c1cnn(C)c1 [Compound 88, (S)-2-isopropyl-1-(1-methyl-1H-pyrazole-4-carbonyl)-1,4-dihydropyrido[3,4-b]pyrazin-3(2H)-one] | 0.85
6 | CC[C@H](C)[C@H]1C(=O)Nc2cnccc2N1C(=O)c1cnn(C)c1 [Compound 89, (S)-2-((S)-sec-butyl)-1-(1-methyl-1H-pyrazole-4-carbonyl)-1,4-dihydropyrido[3,4-b]pyrazin-3(2H)-one] | 0.23
7 | CC[C@H](C)[C@H]1C(=O)Nc2ccccc2N1C(=O)CO [Compound 109, (S)-3-((S)-sec-butyl)-4-(2-hydroxyacetyl)-3,4-dihydroquinoxalin-2(1H)-one] | 1.51
8 | CC[C@H](C)[C@H]1C(=O)Nc2ccccc2N1C(=O)CCO [Compound 110, (S)-3-((S)-sec-butyl)-4-(3-hydroxypropanoyl)-3,4-dihydroquinoxalin-2(1H)-one] | 1.18
9 | CC[C@H](C)[C@H]1C(=O)Nc2ccccc2N1C(=O)N1CC(CO)C1 [Compound 111, (S)-3-((S)-sec-butyl)-4-(3-(hydroxymethyl)azetidine-1-carbonyl)-3,4-dihydroquinoxalin-2(1H)-one] | 2.06
10 | CC[C@H](C)[C@H]1C(=O)Nc2ccccc2N1C(=O)N1CC(F)C1 [Compound 112, (S)-3-((S)-sec-butyl)-4-(3-fluoroazetidine-1-carbonyl)-3,4-dihydroquinoxalin-2(1H)-one] | 1.01
11 | CC[C@H](C)[C@H]1C(=O)Nc2ccc(F)cc2N1C(N)=O [Compound 113, (S)-2-((S)-sec-butyl)-7-fluoro-3-oxo-3,4-dihydroquinoxaline-1(2H)-carboxamide] | 2.01
12 | CC[C@H](C)[C@H]1C(=O)Nc2ccccc2N1C(=O)N1CCC[C@H](O)C1 [Compound 114, (S)-3-((S)-sec-butyl)-4-((S)-3-hydroxypiperidine-1-carbonyl)-3,4-dihydroquinoxalin-2(1H)-one] | 1.69
13 | CC[C@H](C)[C@H]1C(=O)Nc2ccccc2N1C(=O)N(C)CCCO [Compound 115, (S)-2-((S)-sec-butyl)-N-(3-hydroxypropyl)-N-methyl-3-oxo-3,4-dihydroquinoxaline-1(2H)-carboxamide] | 2.29
14 | CC[C@H](C)[C@H]1C(=O)Nc2ccccc2N1C(=O)N1CCC[C@H](CO)C1 [Compound 116, (S)-3-((S)-sec-butyl)-4-((S)-3-(hydroxymethyl)piperidine-1-carbonyl)-3,4-dihydroquinoxalin-2(1H)-one] | 0.83
15 | CC[C@H](C)[C@H]1C(=O)Nc2ccccc2N1C(=O)N1CC(F)(F)C1 [Compound 117, (S)-3-((S)-sec-butyl)-4-(3,3-difluoroazetidine-1-carbonyl)-3,4-dihydroquinoxalin-2(1H)-one] | 1.24
16 | CC[C@H](C)[C@H]1C(=O)Nc2ccccc2N1C(=O)OC [Compound 125, methyl (S)-2-((S)-sec-butyl)-3-oxo-3,4-dihydroquinoxaline-1(2H)-carboxylate] | 1.25
17 | CC[C@H](C)[C@H]1C(=O)Nc2ccccc2N1C(=O)N[C@H]1CCNC1 [Compound 126, (S)-2-((S)-sec-butyl)-3-oxo-N-((S)-pyrrolidin-3-yl)-3,4-dihydroquinoxaline-1(2H)-carboxamide] | 1.53
18 | CC[C@H](C)[C@H]1C(=O)Nc2ccccc2N1C(=O)N[C@H]1CCN(C)C1 [Compound 129, (S)-2-((S)-sec-butyl)-N-((S)-1-methylpyrrolidin-3-yl)-3-oxo-3,4-dihydroquinoxaline-1(2H)-carboxamide] | 1.3
19 | CC[C@H](C)[C@H]1C(=O)Nc2ccccc2N1C(=O)NC1CCN(CCO)CC1 [Compound 130, (S)-2-((S)-sec-butyl)-N-(1-(2-hydroxyethyl)piperidin-4-yl)-3-oxo-3,4-dihydroquinoxaline-1(2H)-carboxamide] | 2.13
20 | CC[C@H](C)[C@H]1C(=O)Nc2ccccc2N1C(=O)N(C)CCO [Compound 131, (S)-2-((S)-sec-butyl)-N-(2-hydroxyethyl)-N-methyl-3-oxo-3,4-dihydroquinoxaline-1(2H)-carboxamide] | 2.15
21 | CC[C@H](C)[C@H]1C(=O)Nc2ccccc2N1C(=O)N[C@H]1C[C@H](O)C1 [Compound 132, (S)-2-((S)-sec-butyl)-N-((1R,3S)-3-hydroxycyclobutyl)-3-oxo-3,4-dihydroquinoxaline-1(2H)-carboxamide] | 0.64
22 | CC[C@H](C)[C@H]1C(=O)Nc2ccccc2N1C(=O)N[C@H]1C[C@@H](O)C1 [Compound 133, (S)-2-((S)-sec-butyl)-N-((1s,3R)-3-hydroxycyclobutyl)-3-oxo-3,4-dihydroquinoxaline-1(2H)-carboxamide] | 1.68

Source: patent US20250296916A1, “BICYCLIC PIPERAZINONES AND THERAPEUTIC USES THEREOF” (Cytokinetics, Inc., priority 2022, published 2025)
